For series [1], the system named is albumin-induced asthma. The series is described as follows: Inhibition of albumin-induced asthma (air way resistance, double flow plethysmography). The format is in vivo, Hartley male guinea pigs. The settings on record: 100 mg/kg, orally 1 h before and 3 h after the challenge. On the procedure:
Evaluation 2: Inhibition of albumin-induced asthma
Effect of the compounds of the present invention on albumin-induced asthma was estimated in the following manner.
Inhalation of 1% ovalbumin using ultrasonic nebulizer into Hartley male guinea pigs was performed 10 min/day over 8 days to sensitize the guinea pigs. One week after the last sensitization, inhalation of 2% ovalbumin was performed for 5 min. to induce allergic reaction. Metyrapone (10 mg/kg, i.v.) was administered at 24 h and 1 h before the challenge, propylene glycol (control) or a solution of the test compound in propylene glycol was orally administered at 1 h before and 3 h after the challenge, and pyrilamine (10 mg/kg, i.p.) was intraperitoneally administered at 30 min before the challenge. Air way resistance was measured by double flow plethysmography at 1 min, 4 h, 5 h, 6 h, 7 h, and 8 h after the challenge, and inhibitory effect of the test compound on the asthma was estimated based on the measurements obtained.

The subject of series [2] is picryl chloride-induced dermatitis. Kind of series: Inhibition of picryl chloride-induced dermatitis (type IV allergic inflammation model, ear swelling, Asherson's method). The settings on record: applied on ear just after challenge, ear thickness at 24 h. The format is in vivo, ICR male mice. The protocol: Evaluation 1: Inhibition of picryl chloride-induced dermatitis
Effect of the compounds of the present invention on picryl chloride-induceddermatitis, which is a typical model of type IV allergic inflammation, was estimated by the Asherson's method [Immunology, 15, 405 (1968)] in the following manner.
A 7% (w/v) solution of picryl chloride in acetone (0.1 mL) was applied on a portion of the abdominal skin of each of ICR male mice to sensitize the mice. After 7 days, a 1% (w/v) solution of picryl chloride in acetone (0.02 mL) was applied on the ears of the individual mice to induce allergic reaction. Just after the challenge, 0.04 mL of acetone (control) or a 0.25-2.5% (w/v) solution of the test compound in acetone was applied on the ear. Increase of the ear thickness of the individual mice was measured at 24 h after the challenge, and inhibitory effect of the test compound on the dermatitis was estimated based on the difference in ear thickness between before and after the induction of the allergic reaction.

Series [3] in a line: Metabolite found in plasma after oral administration of the compound of Example 1. The format is in vivo. The settings on record: compound of Example 1 orally administered to guinea pig. The source says:
The title compound was obtained by repeating substantially the same procedure as Example 1, except using 4-(3,5,6-trimethyl-1,4-benzoquinon-2-yl)-2-hydroxy-2-methylbutyric acid which had been prepared by oxidation of 6-hydroxy-2,5,7,8-tetramethylchroman-2-carboxylic acid with ammonium cerium (IV) nitrate (yield 62%).

Where [4] appears, read: concentration 0.25% (w/v) in acetone.
The mark [5] stands for this setting: concentration 0.75% (w/v) in acetone.

Structures are written as SMILES.

Consider `Cc1c(C)c2c(c(C)c1O)CCC(C)(C(=O)Nc1c(N)n(-c3ccccc3)c(=O)n(C)c1=O)O2` (stereo not drawn) [Example 1, 6-Amino-5-(6-hydroxy-2,5,7,8-tetramethvlchroman-2-carboxamido)-3-methyl-1-phenyl-2,4 (1H. 3H)-pyrimidinedione], for which, in series [1] (1 min after the challenge), the “inhibition on the air way reaction at 1 min after the challenge” value was determined as 62%. Further, in series [1] (AUC 4-8 h), the “inhibition on the air way reaction (AUC) during 4-8 h after the challenge” value was found to be 50%. Further, the “Inhibition (%) of picryl chloride-induced dermatitis” value (from here on “Inhibition (%)”) in series [2] (setting [4]) is 69%.
On to `Cc1c(C)c2c(c(C)c1O)CC[C@](C)(C(=O)Nc1c(N)n(-c3ccccc3)c(=O)n(C)c1=O)O2` [Example 2], for which the “Inhibition (%)” value in series [2] (setting [5]) amounted to 65%.
Consider `Cc1c(C)c2c(c(C)c1O)CC[C@@](C)(C(=O)Nc1c(N)n(-c3ccccc3)c(=O)n(C)c1=O)O2` [Example 3, 6-Amino-5-(6-hydroxy-2,5,7,8-tetramethylchroman-2(S)-carboxamido)-3-methyl-1-phenyl-2,4 (1H, 3H) -pyrimidinedione], for which the “Inhibition (%)” value in series [2] (setting [5]) is reported as 69%.
The same measure, in the same setting: the result for `CNc1c(NC(=O)C2(C)CCc3c(C)c(O)c(C)c(C)c3O2)c(=O)n(C)c(=O)n1-c1ccccc1` (stereo not drawn) [Example 11, 5-(6-Hydroxy-2,5,7,8-tetramethvlchroman-2-carboxamido)-3-methyl-6-methylamino-1-phenyl-2,4 (1H, 3H) -pyrimidinedione] reads 44%.
As for `COc1c(C)c(C)c2c(c1C)CCC(C)(C(=O)Nc1c(N)n(-c3ccccc3)c(=O)n(C)c1=O)O2` (stereo not drawn) [Example 13, 6-Amino-5-(6-methoxy-2,5.7,8-tetramethylchroman-2-carboxamido)-3-methyl-1-phenyl-2,4 (1H, 3H)-pyrimidinedione], the “Inhibition (%)” value in series [2] (concentration 2.50% (w/v) in acetone) was found to be 33%.
Take `CC(=O)Oc1c(C)c(C)c2c(c1C)CCC(C)(C(=O)Nc1c(N)n(-c3ccccc3)c(=O)n(C)c1=O)O2` (stereo not drawn) [Example 14, 5-(6-Acetoxy-2.5,7,8-tetramethvlchroman-2-carboxamido)-6-amino-3-methyl-1-phenyl-2,4 (1H, 3H)-pyrimidinedione]: in series [2] (setting [5]), the “Inhibition (%)” value amounted to 53%.
As to `CC1=C(C)C(=O)C(CCC(C)(O)C(=O)Nc2c(N)n(-c3ccccc3)c(=O)n(C)c2=O)=C(C)C1=O` (stereo not drawn) [Example 15, 6-Amino-3-methyl-1-phenyl-5-[4-(3,5,6-trimethyl-1,4-benzoquinon-2-yl)-2-hydroxy-2-methylbutyramido]-2,4 (1H, 3H)-pyrimidinedione], the “found in plasma as metabolite of the compound of Example 1” value in series [3] is on record as “found in plasma a guinea pig as one of metabolites”. Besides, the “Inhibition (%)” value in series [2] (setting [5]) is reported as 70%.
For the compound `Cc1c(C)c2c(c(C)c1O)CCC(C)(CNc1c(N)n(-c3ccccc3)c(=O)n(C)c1=O)O2` (stereo not drawn) [Example 17, 6-Amino-5-[(6-hydroxy-2,5,7,8-tetramethyl-2-chromanylmethyl)amino]-3-methyl-1-phenyl-2,4 (1H, 3H) -pyrimidinedione], in series [2] (setting [5]), the “Inhibition (%)” value is 80%.
As to `CCCCN(Cc1c(N)n(-c2ccccc2)c(=O)n(C)c1=O)C(=O)C1(C)CCc2c(C)c(O)c(C)c(C)c2O1` (stereo not drawn) [Example 19, 6-Amino-5-(N-butyl-6-hydroxy-2,5,7,8-tetramethylchroman-2-carboxamidomethyl)-3-methyl-1-phenyl-2,4 (1H, 3H)-pyrimidinedione], the “Inhibition (%)” value in series [2] (setting [4]) turned out to be 49%.
